In patent US11352344B2, “Antagonists of the muscarinic acetylcholine receptor M4” (Vanderbilt University, priority 2017, dated 2022):

Target: T1, Human M4 (Homo sapiens, UniProt P08173)
T1 construct: expressed in transfected cells; host or cells: CHO-K1 (Chinese hamster ovary) cells, stably co-transfected with Gqi5
T1 sequence (P08173 1-479): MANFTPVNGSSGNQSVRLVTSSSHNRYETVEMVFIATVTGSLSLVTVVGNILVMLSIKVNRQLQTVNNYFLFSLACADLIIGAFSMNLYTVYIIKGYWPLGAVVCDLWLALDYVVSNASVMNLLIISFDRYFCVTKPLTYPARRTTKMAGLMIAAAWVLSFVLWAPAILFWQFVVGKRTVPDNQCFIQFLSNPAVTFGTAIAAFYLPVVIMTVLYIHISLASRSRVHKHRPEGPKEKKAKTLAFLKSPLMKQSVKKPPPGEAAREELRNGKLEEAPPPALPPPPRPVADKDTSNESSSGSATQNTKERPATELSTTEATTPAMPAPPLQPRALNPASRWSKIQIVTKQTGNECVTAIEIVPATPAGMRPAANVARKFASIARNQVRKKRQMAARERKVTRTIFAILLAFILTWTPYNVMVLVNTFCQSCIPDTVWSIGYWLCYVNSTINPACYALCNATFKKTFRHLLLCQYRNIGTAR
Test: mAChR M4 cell-based functional assay (calcium flux, antagonism of EC80 acetylcholine response)
Conditions: for remaining activity at 30 µM: % ACh maximum at 30 μM, human M4, read-out: Emin; for IC50: M4/Gqi5/CHO-K1 cells, decrease of response to EC80 acetylcholine
Experimental: Human or rat M4 cDNA, along with the chimeric G protein Gqi5, were transfected into Chinese hamster ovary (CHO-K1) cells purchased from the American Type Culture Collection using Lipofectamine2000. M4/Gqi5/CHO cells were grown in Ham's F-12 medium containing 10% heat-inactivated fetal bovine serum (FBS), 20 mM HEPES, 500 μg/mL G418 sulfate, and 200 μg/mL Hygromycin B.
For high throughput measurement of agonist-evoked increases in intracellular calcium, CHO-K1 cells stably expressing muscarinic receptors were plated in growth medium lacking G418 and hygromycin at 15,000 cells/20 μL/well in Greiner 384-well black-walled, tissue culture (TC)-treated, clear-bottom plates (VWR). Cells were incubated overnight at 37° C. and 5% CO2. The next day, cells were washed using an ELX 405 (BioTek) with assay buffer; the final volume was then aspirated to 20 μL. Next, 20 μL of a 2.3 μM stock of Fluo-4/acetoxymethyl ester (Invitrogen, Carlsbad, Calif.), prepared as a 2.3 mM stock in DMSO and mixed in a 1:1 ratio with 10% (w/v) Pluronic F-127 and diluted in assay buffer, was added to the wells and the cell plates were incubated for 50 min at 37° C. and 5% CO2. Dye was removed by washing with the ELX 405 and the final volume was aspirated to 20 μL. Compound master plates were formatted in a 10 point concentration-response curve (CRC) format (1:3 dilutions) in 100% DMSO with a starting concentration of 10 or 1 mM using a BRAVO liquid handler (Agilent). Test compound CRCs were then transferred to daughter plates (240 nL) using the Echo acoustic plate reformatter (Labcyte, Sunnyvale, Calif.) and then diluted into assay buffer (40 μL) to a 2× stock using a Thermo Fisher Combi (Thermo Fisher Scientific, Waltham, Mass.).
Calcium flux was measured using the Functional Drug Screening System (FDSS) 6000 or 7000 (Hamamatsu Corporation, Tokyo, Japan) as an increase in the fluorescent static ratio. Compounds were applied to cells (20 μL, 2×) using the automated system of the FDSS at 2 seconds into the protocol and the data were collected at 1 Hz. At 143 s, 10 μL of an EC20 concentration of the muscarinic receptor agonist acetylcholine was added (5×), followed by the addition of 12 μL of an EC80 concentration of acetylcholine at the 268 s time point (5×). Agonist activity was analyzed as a concentration-dependent increase in calcium mobilization upon compound addition. Positive allosteric modulator activity was analyzed as a concentration-dependent increase in the EC20 acetylcholine response. Antagonist activity was analyzed as a concentration-dependent decrease in the EC80 acetylcholine response; for the purposes of the tables herein, an IC50 (inhibitory concentration 50) was calculated as a concentration-dependent decrease of the response elicited by an EC80 concentration of acetylcholine. Concentration-response curves were generated using a four-parameter logistical equation in XLFit curve fitting software (IDBS, Bridgewater, N.J.) for Excel (Microsoft, Redmond, Wash.) or Prism (GraphPad Software, Inc., San Diego, Calif.) or the Dotmatics software platform (Dotmatics, Bishop's Stortford, UK).
Compounds were synthesized as described above. Activity (IC50 and Emin) was determined in the mAChR M4 cell-based functional assay as described above and the data are shown in Table 5. The compound numbers correspond to the compound numbers used in Examples 1-4 and Tables 1-4.

remaining activity at 30 µM [%] | IC50 [nM] | Structure (SMILES)
16.1 | > 10000 | Cc1cnn(C)c1-c1ccc(NCC2CCC3CN(Cc4ccccc4)CC23)nn1 (stereo not shown) [Compound 26, N-[(2-benzyl-3,3a,4,5,6,6a-hexahydro-1H-cyclopenta[c]pyrrol-4-yl)methyl]-6-(2,4-dimethylpyrazol-3-yl)pyridazin-3-amine]
6.59 | 2210 | Cc1cnn(C)c1-c1ccc(NCCC2CCC3CN(CCc4ccccc4)CC23)nn1 (stereo not shown) [Compound 16, 6-(2,4-dimethylpyrazol-3-yl)-N-[2-[2-(2-phenylethyl)-3,3a,4,5,6,6a-hexahydro-1H-cyclopenta[c]pyrrol-4-yl]ethyl]pyridazin-3-amine]
5.96 | 766 | Cc1cnn(C)c1-c1ccc(NCC2CCC3CN(CCc4ccccc4)CC23)nn1 (stereo not shown) [Compound 23, 6-(2,4-dimethylpyrazol-3-yl)-N-[[2-(2-phenylethyl)-3,3a,4,5,6,6a-hexahydro-1H-cyclopenta[c]pyrrol-4-yl]methyl]pyridazin-3-amine]
29.4 | > 10000 | Cc1cnn(C)c1-c1ccc(NCCC2CCC3CN(CC4CCOCC4)CC23)nn1 (stereo not shown) [Compound 12, 6-(2,4-dimethylpyrazol-3-yl)-N-[2-[2-(tetrahydropyran-4-ylmethyl)-3,3a,4,5,6,6a-hexahydro-1H-cyclopenta[c]pyrrol-4-yl]ethyl]pyridazin-3-amine]
3.52 | 402 | Cc1cnn(C)c1-c1ccc(NCCC2CCC3CN(CC45CC6CC(CC(C6)C4)C5)CC23)nn1 (stereo not shown) [Compound 18, N-[2-[2-(1-adamantylmethyl)-3,3a,4,5,6,6a-hexahydro-1H-cyclopenta[c]pyrrol-4-yl]ethyl]-6-(2,4-dimethylpyrazol-3-yl)pyridazin-3-amine]
3.75 | 65 | Cc1cnn(C)c1-c1ccc(NCCC2CCC3CN(CC4CC5C=CC4C5)CC23)nn1 (stereo not shown) [Compound 13, N-[2-[2-(5-bicyclo[2.2.1]hept-2-enylmethyl)-3,3a,4,5,6,6a-hexahydro-1H-cyclopenta[c]pyrrol-4-yl]ethyl]-6-(2,4-dimethylpyrazol-3-yl)pyridazin-3-amine]
29.6 | > 10000 | Cc1cnn(C)c1-c1ccc(OC2CCC3CN(CCc4ccccc4)CC32)nn1 (stereo not shown) [Compound 9, 4-[6-(2,4-dimethylpyrazol-3-yl)pyridazin-3-yl]oxy-2-(2-phenylethyl)-3,3a,4,5,6,6a-hexahydro-1H-cyclopenta[c]pyrrole]
3.95 | 1030 | Cc1cnn(C)c1-c1ccc(OC2CCC3CN(CC45CC6CC(CC(C6)C4)C5)CC32)nn1 (stereo not shown) [Compound 6, 2-(1-adamantylmethyl)-4-[6-(2,4-dimethylpyrazol-3-yl)pyridazin-3-yl]oxy-3,3a,4,5,6,6a-hexahydro-1H-cyclopenta[c]pyrrole]
8.5 | 2260 | Cc1cnn(C)c1-c1ccc(NCCC2CCC3CN(Cc4ccccc4)CC23)nn1 (stereo not shown) [Compound 15, N-[2-(2-benzyl-3,3a,4,5,6,6a-hexahydro-1H-cyclopenta[c]pyrrol-4-yl)ethyl]-6-(2,4-dimethylpyrazol-3-yl)pyridazin-3-amine]
10.8 | 1500 | Cc1cccnc1CN1CC2CCC(CNc3ccc(-c4c(C)cnn4C)nn3)C2C1 (stereo not shown) [Compound 22, 6-(2,4-dimethylpyrazol-3-yl)-N-[[2-[(3-methyl-2-pyridyl)methyl]-3,3a,4,5,6,6a-hexahydro-1H-cyclopenta[c]pyrrol-4-yl]methyl]pyridazin-3-amine]
14 | 3280 | Cc1cnn(C)c1-c1ccc(NC2CCC3CN(CC4CC5C=CC4C5)CC32)nn1 (stereo not shown) [Compound 3, 2-(5-bicyclo[2.2.1]hept-2-enylmethyl)-N-[6-(2,4-dimethylpyrazol-3-yl)pyridazin-3-yl]-3,3a,4,5,6,6a-hexahydro-1H-cyclopenta[c]pyrrol-4-amine]
20.9 | > 10000 | Cc1cnn(C)c1-c1ccc(NCCC2CCC3CN(CC4CCCOC4)CC23)nn1 (stereo not shown) [Compound 11, 6-(2,4-dimethylpyrazol-3-yl)-N-[2-[2-(tetrahydropyran-3-ylmethyl)-3,3a,4,5,6,6a-hexahydro-1H-cyclopenta[c]pyrrol-4-yl]ethyl]pyridazin-3-amine]
5.46 | 1360 | Cc1cnn(C)c1-c1ccc(OC2CCC3CN(CC4CC5C=CC4C5)CC32)nn1 (stereo not shown) [Compound 7, 2-(5-bicyclo[2.2.1]hept-2-enylmethyl)-4-[6-(2,4-dimethylpyrazol-3-yl)pyridazin-3-yl]oxy-3,3a,4,5,6,6a-hexahydro-1H-cyclopenta[c]pyrrole]
5.11 | 149 | Cc1cnn(C)c1-c1ccc(NCC2CCC3CN(CCC(C)(C)C)CC23)nn1 (stereo not shown) [Compound 19, N-[[2-(3,3-Dimethylbutyl)-3,3a,4,5,6,6a-hexahydro-1H-cyclopenta[c]pyrrol-4-yl]methyl]-6-(2,4-dimethylpyrazol-3-yl)pyridazin-3-amine]
31.9 | > 10000 | Cc1cccnc1CN1CC2CCC(Oc3ccc(-c4c(C)cnn4C)nn3)C2C1 (stereo not shown) [Compound 4, 4-[6-(2,4-Dimethylpyrazol-3-yl)pyridazin-3-yl]oxy-2-[(3-methyl-2-pyridyl)methyl]-3,3a,4,5,6,6a-hexahydro-1H-cyclopenta[c]pyrrole]
43.3 | > 10000 | Cc1cnn(C)c1-c1ccc(OC2CCC3CN(Cc4ccccc4)CC32)nn1 (stereo not shown) [Compound 8, 2-benzyl-4-[6-(2,4-dimethylpyrazol-3-yl)pyridazin-3-yl]oxy-3,3a,4,5,6,6a-hexahydro-1H-cyclopenta[c]pyrrole]
31.1 | > 10000 | Cc1cnn(C)c1-c1ccc(NC2CCC3CN(CCC(C)(C)C)CC32)nn1 (stereo not shown) [Compound 1, 2-(3,3-Dimethylbutyl)-N-[6-(2,4-dimethylpyrazol-3-yl)pyridazin-3-yl]-3,3a,4,5,6,6a-hexahydro-1H-cyclopenta[c]pyrrol-4-amine]
9.66 | 3570 | Cc1cnn(C)c1-c1ccc(OC2CCC3CN(CCC(C)(C)C)CC32)nn1 (stereo not shown) [Compound 5, 2-(3,3-dimethylbutyl)-4-[6-(2,4-dimethylpyrazol-3-yl)pyridazin-3-yl]oxy-3,3a,4,5,6,6a-hexahydro-1H-cyclopenta[c]pyrrole]
8.16 | 2170 | Cc1cnn(C)c1-c1ccc(NC2CCC3CN(CC45CC6CC(CC(C6)C4)C5)CC32)nn1 (stereo not shown) [Compound 2, 2-(1-adamantylmethyl)-N-[6-(2,4-dimethylpyrazol-3-yl)pyridazin-3-yl]-3,3a,4,5,6,6a-hexahydro-1H-cyclopenta[c]pyrrol-4-amine]
27.8 | > 10000 | Cc1cnn(C)c1-c1ccc(NCC2CCC3CN(CC4CCOCC4)CC23)nn1 (stereo not shown) [Compound 25, 6-(2,4-dimethylpyrazol-3-yl)-N-[[2-(tetrahydropyran-4-ylmethyl)-3,3a,4,5,6,6a-hexahydro-1H-cyclopenta[c]pyrrol-4-yl]methyl]pyridazin-3-amine]
